The source of these data is patent US20110312934A1, “2-ALKYL-6-CYCLOAMINO-3-(PYRIDIN-4-YL)IMIDAZO[1,2-B]-PYRIDAZINE DERIVATIVES, PREPARATION THEREOF, AND THERAPEUTIC APPLICATION THEREOF” (SANOFI-AVENTIS, priority 2008, published 2011).

Structures can show the parent of a compound that is named as a salt.

What is called melting point is the temperature, or range, at which the solid turns liquid. Consider `Cc1nc2ccc(N3C[C@@H]4C[C@H]3CN4)nn2c1-c1ccncc1`, for which the melting point was 120 °C (dec.).
As for `Cc1cc(-c2c(C)nc3ccc(N4C[C@@H]5C[C@@H]4CN5)nn23)ccn1` (as salt: HBr), the melting point was > 300 °C.
For `Cc1cc(-c2c(C)nc3ccc(N4CCC5(CCCNC5)CC4)nn23)ccn1` (as salt: HCl) the value was > 295 °C; for `Cc1nc2ccc(N3CCC4(CC3)CNCCO4)nn2c1-c1ccncc1` (as salt: HCl), > 255 °C.
For `Cc1nc2ccc(N3CCC4(CC3)CNCCO4)nn2c1-c1ccnc(N)c1` (as salt: HCl) the value was > 300 °C; for `Cc1nc2ccc(N3CCNCC3)nn2c1-c1ccncc1` (as salt: HCl) [Compound 2, 2-Methyl-6-piperazin-1-yl-3-pyridin-4-yl-imidazo[1,2-b]pyridazine], 319 to 321 °C.
`CCN1CCN(c2ccc3nc(C)c(-c4ccncc4)n3n2)CC1` (as salt: HCl) [Compound 42, 6-(4-Ethylpiperazin-1-yl)-2-methyl-3-pyridin-4-ylimidazo[1,2-b]pyridazine] returned a melting point of 305 to 307 °C.
For the molecule `Cc1nc2ccc(N3C[C@@H](C)N[C@@H](C)C3)nn2c1-c1ccncc1` (as salt: HCl) [Compound 54, 6-(cis-3,5-Dimethylpiperazin-1-yl)-2-methyl-3-pyridin-4-ylimidazo[1,2-b]pyridazine], the melting point fell in the range of 343 to 345 °C.
For `Cc1cc(-c2c(C)nc3ccc(N4CC5CNCC5C4)nn23)ccn1` (stereo not shown) (as salt: HCl) [Compound 67, 6-Hexahydropyrrolo[3,4-c]pyrrol-2(1H)-yl-2-methyl-3-(2-methylpyridin-4-yl)-imidazo[1,2-b]-pyridazine] the value was 214 to 221 °C; for `Cc1nc2ccc(N3CCNCC3)nn2c1-c1ccnc(F)c1` [Compound 3, 3-(2-Fluoropyridin-4-yl)-2-methyl-6-piperazin-1-ylimidazo[1,2-b]pyridazine], 139 to 141 °C.
`CC(C)c1nc2ccc(N3CCNCC3)nn2c1-c1ccncc1` [Compound 9, 2-Isopropyl-6-piperazin-1-yl-3-pyridin-4-ylimidazo[1,2-b]pyridazine] yielded a melting point of 199 to 201 °C.
For `c1cc(-c2c(C3CC3)nc3ccc(N4CCNCC4)nn23)ccn1` [Compound 11, 2-Cyclopropyl-6-piperazin-1-yl-3-pyridin-4-ylimidazo[1,2-b]pyridazine] the value was 169 to 171 °C.
Turning to `CC(C)Cc1nc2ccc(N3CCNCC3)nn2c1-c1ccncc1` [Compound 16, 2-Isobutyl-6-piperazin-1-yl-3-pyridin-4-ylimidazo[1,2-b]pyridazine], the melting point lay in the range of 92 to 119 °C.
The value for `Cc1nc2ccc(N3CCN[C@H](C)C3)nn2c1-c1ccncc1` [Compound 26, 2-Methyl-6-((R)-3-methylpiperazin-1-yl)-3-pyridin-4-ylimidazo[1,2-b]pyridazine] was 146 to 148 °C; that for `Cc1cc(-c2c(C)nc3ccc(N4CCN[C@H](C)C4)nn23)ccn1` [Compound 27, 2-Methyl-6-((R)-3-methylpiperazin-1-yl)-3-(2-methylpyridin-4-yl)imidazo[1,2-b]pyridazine] was 157 to 159 °C; that for `Cc1nc2ccc(N3CCN[C@H](C)C3)nn2c1-c1ccnc(N)c1` [Compound 28, 4-[2-Methyl-6-((R)-3-methylpiperazin-1-yl)imidazo[1,2-b]pyridazin-3-yl]pyridin-2-ylamine] was 172 to 177 °C.
For the molecule `Cc1nc2ccc(N3CCN[C@@H](C)C3)nn2c1-c1ccncc1` [Compound 35, 2-Methyl-6-((S)-3-methylpiperazin-1-yl)-3-pyridin-4-ylimidazo[1,2-b]pyridazine], the melting point is 146 to 148 °C.
For `COc1cc(-c2c(C)nc3ccc(N4CCN[C@@H](C)C4)nn23)ccn1` [Compound 36, 3-(2-Methoxypyridin-4-yl)-2-methyl-6-((S)-3-methylpiperazin-1-yl)imidazo[1,2-b]pyridazine] the value was 106 to 108 °C; for `Cc1nc2ccc(N3CCN[C@@H](C)C3)nn2c1-c1ccnc(N)c1` [Compound 38, 4-[2-Methyl-6-((S)-3-methylpiperazin-1-yl)imidazo[1,2-b]pyridazin-3-yl]pyridin-2-ylamine], 172 to 177 °C.
For `Cc1nc2ccc(N3CCN(C)CC3)nn2c1-c1ccncc1` [Compound 39, 2-Methyl-6-(4-methylpiperazin-1-yl)-3-pyridin-4-ylimidazo[1,2-b]pyridazine] the value was 150 to 152 °C; for `CN1CCN(c2ccc3nc(C(F)(F)F)c(-c4ccncc4)n3n2)CC1` [Compound 40, 6-(4-Methylpiperazin-1-yl)-3-pyridin-4-yl-2-trifluoromethylimidazo[1,2-b]pyridazine], 182 to 184 °C.
The value for `Cc1nc2ccc(N3CCNC(CO)C3)nn2c1-c1ccncc1` (stereo not shown) [Compound 41, [4-(2-Methyl-3-pyridin-4-ylimidazo[1,2-b]pyridazin-6-yl)piperazin-2-yl]methanol] was 237 to 240 °C; that for `CCN1CCN(c2ccc3nc(C)c(-c4ccnc(C)c4)n3n2)CC1` [Compound 43, 6-(4-Ethylpiperazin-1-yl)-2-methyl-3-(2-methylpyridin-4-yl)imidazo[1,2-b]pyridazine] was 144 to 146 °C; that for `Cc1cc(-c2c(C)nc3ccc(N4CCN(C(C)C)CC4)nn23)ccn1` [Compound 45, 6-(4-Isopropylpiperazin-1-yl)-2-methyl-3-(2-methylpyridin-4-yl)imidazo[1,2-b]pyridazine] was 97 to 99 °C.
`Cc1nc2ccc(N3CCN(C4CCC4)CC3)nn2c1-c1ccncc1` [Compound 47, 6-(4-Cyclobutylpiperazin-1-yl)-2-methyl-3-pyridin-4-ylimidazo[1,2-b]pyridazine] yielded a melting point of 122 to 132 °C.
For the molecule `Cc1nc2ccc(N3CCN(C4CCC4)CC3)nn2c1-c1ccnc(N)c1` [Compound 48, 4-[6-(4-Cyclobutylpiperazin-1-yl)-2-methylimidazo[1,2-b]pyridazin-3-yl]pyridin-2-ylamine], the melting point fell in the range of 132 to 144 °C.
In the case of `Cc1nc2ccc(N3CCNC(C)(C)C3)nn2c1-c1ccnc(CN)c1` [Compound 50, {4-[6-(3,3-Dimethylpiperazin-1-yl)-2-methylimidazo[1,2-b]pyridazin-3-yl]pyridin-2-yl}methylamine], the melting point lay within 151 to 156 °C.
As to `Cc1cc(-c2c(C)nc3ccc(N4C[C@@H](C)N[C@@H](C)C4)nn23)ccn1` [Compound 55, 6-(cis-3,5-Dimethylpiperazin-1-yl)-2-methyl-3-(2-methylpyridin-4-yl)imidazo[1,2-b]pyridazine], the melting point is 127 to 129 °C.
`Cc1nc2ccc(N3C[C@@H](C)N[C@@H](C)C3)nn2c1-c1ccnc(N)c1` [Compound 56, 4-[6-(cis-3,5-Dimethylpiperazin-1-yl)-2-methylimidazo[1,2-b]pyridazin-3-yl]pyridin-2-ylamine] yielded a melting point of 213 to 215 °C.
As to `CNc1cc(-c2c(C)nc3ccc(N4C[C@@H](C)N[C@@H](C)C4)nn23)ccn1` [Compound 57, {4-[6-(cis-3,5-Dimethylpiperazin-1-yl)-2-methylimidazo[1,2-b]pyridazin-3-yl]pyridin-2-yl}-methylamine], the melting point is 111 to 126 °C.
The value for `Cc1cc(-c2c(C)nc3ccc(N4C[C@H]5CCN[C@@H]5C4)nn23)ccn1` [Compound 65, (R,S)-6-(Hexahydropyrrolo[3,4-b]pyrrol-5(1H)-yl)-2-methyl-3-(2-methylpyridin-4-yl)imidazo[1,2-b]pyridazine] was 131 to 133 °C.
Regarding `Cc1nc2ccc(N3CC4CNCC4C3)nn2c1-c1ccnc(N)c1` (stereo not shown) [Compound 68, {4-[6-(Hexahydropyrrolo[3,4-c]pyrrol-2(1H)-yl)-2-methylimidazo[1,2-b]pyridazin-3-yl]pyridin-2-yl}amine], the melting point was > 155 °C (dec.).
For `Cc1nc2ccc(N3CC4CN(C(C)C)CC4C3)nn2c1-c1ccncc1` (stereo not shown) [Compound 72, 6-(−5-Isopropylhexahydropyrrolo[3,4-c]pyrrol-2(1H)-yl)-2-methyl-3-pyridin-4-ylimidazo[1,2-b]-pyridazine] the value was 172 to 175 °C; for `Cc1nc2ccc(N3CC4CN(C(C)C)CC4C3)nn2c1-c1ccnc(N)c1` (stereo not shown) [Compound 73, 4-[6-(−5-Isopropylhexahydropyrrolo[3,4-c]pyrrol-2(1H)-yl)-2-methylimidazo[1,2-b]pyridazin-3-yl]pyridin-2-ylamine], 215 to 218 °C; for `COc1cc(-c2c(C)nc3ccc(N4CC5CNCC5C4)nn23)ccn1` (stereo not shown) [Compound 74, 6-Hexahydropyrrolo[3,4-c]pyrrol-2(1H)-yl-3-(2-methoxypyridin-4-yl)-2-methylimidazo[1,2-b]-pyridazine], 95 °C.
For `Cc1nc2ccc(N3C[C@H]4CCCN[C@@H]4C3)nn2c1-c1ccncc1` [Compound 75, (R,S)-2-Methyl-6-(octahydropyrrolo[3,4-b]pyridin-6-yl)-3-pyridin-4-ylimidazo[1,2-b]-pyridazine] the value was 130 to 135 °C.
The value for `Cc1cc(-c2c(C)nc3ccc(N4CCC5(CC4)CNC5)nn23)ccn1` [Compound 76, 6-(2,7-Diazaspiro[3.5]non-7-yl)-2-methyl-3-(2-methylpyridin-4-yl)imidazo[1,2-b]pyridazine] was 117 to 120 °C; that for `Cc1nc2ccc(N3CCC(N4CCCC4)CC3)nn2c1-c1ccncc1` [Compound 82, 2-Methyl-3-pyridin-4-yl-6-(4-pyrrolidin-1-ylpiperidin-1-yl)imidazo[1,2-b]pyridazine] was 150 to 153 °C; that for `Cc1cc(-c2c(C)nc3ccc(N4CCC(N5CCCC5)CC4)nn23)ccn1` [Compound 83, 2-Methyl-3-(2-methylpyridin-4-yl)-6-(4-pyrrolidin-1-ylpiperidin-1-yl)imidazo[1,2-b]pyridazine] was 124 to 126 °C.
With `Cc1nc2ccc(N3CCC(N4CCCC4)CC3)nn2c1-c1ccnc(N)c1` [Compound 84, 4-[2-Methyl-6-(4-pyrrolidin-1-ylpiperidin-1-yl)imidazo[1,2-b]pyridazin-3-yl]pyridin-2-ylamine], the melting point was in the range of 129 to 138 °C.
